pEC50: −log10 of the molar value.
Biological target: T1, human PPARdelta (Homo sapiens, UniProt Q03181)
T1 construct: amino acids S139-Y441; expressed in transfected cells
T1 sequence (Q03181 139-441): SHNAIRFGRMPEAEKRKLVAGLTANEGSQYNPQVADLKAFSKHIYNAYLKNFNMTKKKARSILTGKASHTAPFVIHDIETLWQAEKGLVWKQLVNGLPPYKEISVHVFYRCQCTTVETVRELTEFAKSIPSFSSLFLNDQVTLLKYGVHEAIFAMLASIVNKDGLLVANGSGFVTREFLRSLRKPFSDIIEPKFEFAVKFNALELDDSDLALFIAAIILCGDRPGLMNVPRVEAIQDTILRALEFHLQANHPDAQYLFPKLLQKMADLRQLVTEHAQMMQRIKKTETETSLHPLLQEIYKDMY
Test: Cellular PPARdelta assay (luciferase reporter, stably transfected HEK cell line)
Type: cell-based
Conditions: GR-GAL4-humanPPARdelta-LBD
Method: The activity of PPARalpha agonists is determined in a 3-day assay which is described below:
The PPARalpha reporter cell line is cultivated to 80% confluence in DMEM (#41965-039, Invitrogen) which is mixed with the following additions: 10% cs-FCS (fetal calf serum; #SH-30068.03, Hyclone), 0.5 mg/ml zeocin (#R250-01, Invitrogen), 0.5 mg/ml G418 (#10131-027, Invitrogen), 1% penicillin-streptomycin solution (#15140-122, Invitrogen) and 2 mM L-glutamine (#25030-024, Invitrogen). The cultivation takes place in standard cell culture bottles (#353112, Becton Dickinson) in a cell culture incubator at 37° C. in the presence of 5% CO2. The 80%-confluent cells are washed once with 15 ml of PBS (#14190-094, Invitrogen), treated with 3 ml of trypsin solution (#25300-054, Invitrogen) at 37° C. for 2 min, taken up in 5 ml of the DMEM described and counted in a cell counter. After dilution to 500.000 cells/ml, 35,000 cells are seeded in each well of a 96 well microtiter plate with a clear plastic base (#3610, Corning Costar). The plates are incubated in the cell culture incubator at 37° C. and 5% CO2 for 24 h.
PPARalpha Agonists to be Tested are Dissolved in DMSO in a Concentration of 10 mM. This stock solution is diluted in DMEM (#41965-039, Invitrogen) which is mixed with 5% cs-FCS (#SH-30068.03, Hyclone), 2 mM L-glutamine (#25030-024, Invitrogen) and the previously described antibiotics (zeocin, G418, penicillin and streptomycin). Test substances are tested in 11 different concentrations in the range from 10 μM to 100 pM.
The medium of the PPARalpha reporter cell line seeded on day 1 is completely removed by aspiration, and the test substances diluted in medium are immediately added to the cells. The dilution and addition of the substances is carried out by a robot (Beckman FX). The final volume of the test substances diluted in medium is 100 μl per well of a 96 well microtiter plate. The DMSO concentration in the assay is less than 0.1% v/v in order to avoid cytotoxic effects of the solvent.
The assay plates are incubated in an incubator at 37° C. and 5% CO2 for 24 h.
The PPARalpha reporter cells treated with the test substances are removed from the incubator, and the medium is aspirated off. The cells are lyzed by pipetting 50 μl of Bright Glo reagent (from Promega) into each well of a 96 well microtiter plate. After incubation at room temperature in the dark for 10 minutes, the microtiter plates are measured in the luminometer (Trilux from Wallac). The measuring time for each well of a microtiter plate is 1 sec.
The raw data from the luminometer are transferred into a Microsoft Excel file. Dose-effect plots and EC50 values of PPAR agonists are calculated using the XL.Fit program as specified by the manufacturer (IDBS).
The potency of substances which bind to human PPARdelta and activate it in an agonistic manner is analyzed using a stably transfected HEK cell line (HEK=human embryo kidney) which is referred to here as PPARdelta reporter cell line. In analogy to the assay described for PPARalpha, the PPARdelta reporter cell line also contains two genetic elements, a luciferase reporter element (pdeltaM-GAL4-Luc-Zeo) and a PPARdelta fusion protein (GR-GAL4-humanPPARdelta-LBD) which mediates expression of the luciferase reporter element depending on a PPARdelta ligand. The stably and constitutively expressed fusion protein GR-GAL4-humanPPARdelta-LBD binds in the cell nucleus of the PPARdelta reporter cell line via the GAL4 protein portion to the GAL4 DNA binding motifs 5′-upstream of the luciferase reporter element which is stably integrated in the genome of the cell line. There is only little expression of the luciferase reporter gene in the absence of a PPARdelta ligand if fatty acid-depleted fetal calf serum (cs-FCS) is used in the assay. PPARdelta ligands bind and activate the PPARdelta fusion protein and thereby stimulate expression of the luciferase reporter gene. […]

Row | SMILES | pEC50
1 | Cc1cc(Br)c(C(=O)NCCc2ccc(S(=O)(=O)Nc3nnc(C(C)C)s3)cc2)s1 [Example 47, 3-Bromo-5-methyl-thiophene-2-carboxylic acid {2-[4-(5-isopropyl-[1,3,4]thiadiazol-2-ylsulfamoyl)-phenyl]-ethyl}-amide] | 7.22
2 | CCOc1cc(C(F)(F)F)ccc1C(=O)NCC(C)c1ccc(S(=O)(=O)Nc2nnc(C(C)C)s2)cc1 (single isomer, unassigned) [Example 43a] | 7.40
3 | CCOc1cc(C(F)(F)F)ccc1C(=O)NCC(C)c1ccc(S(=O)(=O)Nc2nnc(C(C)C)s2)cc1 (single isomer, unassigned) [Example 43b] | 7.70
4 | CCOc1cc(C(F)(F)F)ccc1C(=O)NCC(C)c1ccc(S(=O)(=O)Nc2nnc(C(C)C)s2)cc1 (racemic) [Example 43, 2-Ethoxy-N-{2-[4-(5-isopropyl-[1,3,4]thiadiazol-2-ylsulfamoyl)-phenyl]-propyl}-4-trifluoromethyl-benzamide] | 7.70
5 | COc1cc(C(F)(F)F)ccc1C(=O)NCCc1ccc(S(=O)(=O)Nc2nnc(C(C)C)s2)cc1 [Example 1, N-{2-[4-(5-Isopropyl-[1,3,4]thiadiazol-2-ylsulfamoyl)-phenyl]-ethyl}-2-methoxy-4-trifluoromethyl-benzamide] | 6.96

Continued by rising pEC50, values first:

Row | pEC50 | SMILES
6 | 5.44 | Cc1ccc(Cl)cc1C(=O)NCCc1ccc(S(=O)(=O)Nc2nnc(-c3ccccc3)s2)cc1 [Example 32, 5-Chloro-2-methyl-N-{2-[4-(5-phenyl-[1,3,4]thiadiazol-2-ylsulfamoyl)-phenyl]-ethyl}-benzamide]
7 | 5.55 | CC(C)(C)c1nnc(NS(=O)(=O)c2ccc(CCNC(=O)c3cc(Cl)ccc3Cl)cc2)s1 [Example 35, N-{2-[4-(5-tert-Butyl-[1,3,4]thiadiazol-2-ylsulfamoyl)-phenyl]-ethyl}-2,5-dichloro-benzamide]
8 | 5.96 | COc1ccc(C(=O)NCCc2ccc(S(=O)(=O)Nc3nnc(C(C)C)s3)cc2)c(OC)n1 [Example 5, N-{2-[4-(5-Isopropyl-[1,3,4]thiadiazol-2-ylsulfamoyl)-phenyl]-ethyl}-2,6-dimethoxy-nicotinamide]
9 | 6.12 | CC(C)c1nnc(NS(=O)(=O)c2ccc(CNC(=O)c3ccc(C(F)(F)F)cc3)cc2)s1 [Example 24, N-[4-(5-Isopropyl-[1,3,4]thiadiazol-2-ylsulfamoyl)-benzyl]-4-trifluoromethyl-benzamide]
10 | 6.36 | COc1ccc(C(C)(C)C)cc1C(=O)NCCc1ccc(S(=O)(=O)Nc2nnc(C(C)C)s2)cc1 [Example 2, 5-tert-Butyl-N-{2-[4-(5-isopropyl-[1,3,4]thiadiazol-2-ylsulfamoyl)-phenyl]-ethyl}-2-methoxy-benzamide]
11 | 7.40 | CCOc1cc(C(F)(F)F)ccc1C(=O)NCC(CC)c1ccc(S(=O)(=O)Nc2nnc(C(C)C)s2)cc1 (single isomer, unassigned) [Example 44a]
12 | 8.00 | CCOc1cc(C(F)(F)F)ccc1C(=O)NCC(CC)c1ccc(S(=O)(=O)Nc2nnc(C(C)C)s2)cc1 (single isomer, unassigned) [Example 44b]

— patent publication US7858647B2, “N-[1,3,4]-thiadiazol-2-yl-benzene sulfonamides, pharmaceutical compositions thereof and methods for their therapeutic use” (Sanofi-Aventis, priority 2005, dated 2010)
